# Structures can show the parent of a compound that is named as a salt.
# Experiments:
# [1] = target: T1, recombinant human arginase 1 (hARG1) (Homo sapiens, UniProt P05089); assay: Human arginase inhibition assay (colorimetric urea detection), arginase 1; assay type: biochemical; conditions: IC50 class; hydrochloride salts; 1 h at 37° C., pH 7.4, 10 mM L-arginine, 200 μM MnCl2; read-out: Activity Class (ARG I)
# T1 construct: made in house; host or cells: E. coli
# T1 sequence (P05089 1-322): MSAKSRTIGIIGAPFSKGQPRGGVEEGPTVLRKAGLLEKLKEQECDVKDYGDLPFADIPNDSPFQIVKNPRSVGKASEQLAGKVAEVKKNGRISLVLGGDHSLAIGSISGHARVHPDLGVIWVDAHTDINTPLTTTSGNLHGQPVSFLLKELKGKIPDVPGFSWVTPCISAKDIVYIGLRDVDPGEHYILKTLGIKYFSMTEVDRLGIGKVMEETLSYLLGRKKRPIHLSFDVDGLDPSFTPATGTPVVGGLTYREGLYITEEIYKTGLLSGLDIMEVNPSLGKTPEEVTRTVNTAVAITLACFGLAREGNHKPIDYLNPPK
# Method: (§1) Human Arginase Inhibition Assay
# (§2) The inhibitory activities of the compounds of the invention were assessed using recombinant human arginases 1 and 2. Both enzymes were biosynthesized using a prokaryotic expression system (E. coli) and purified by fast protein liquid chromatography (FPLC). The compounds were screened in 96-well plates at the total reaction volume of 100 μL. Briefly, recombinant enzymes were incubated with the tested compounds for 1 h at 37° C. in the reaction buffer (100 mM sodium phosphate buffer, 130 mM NaCl, 1 mg/mL BSA, pH 7.4) containing substrate (L-arginine hydrochloride, 10 mM for hARG1 and 20 mM for hARG2) and cofactor (200 μM MnCl2). The assay is based on the detection of urea, which is generated during the conversion of L-arginine into L-omithine catalyzed by ARG1 or ARG2 (Baggio et al. J Pharmacol. Exp. Ther. 1999, 290, 1409-1416). The colorimetrically detectable product was developed by adding a mixture of reagent A (4 mM oPA, 50 mM boric acid, 1 M sulfuric acid, 0.03% Brij-35) and reagent B (4 mM NED, 50 mM boric acid, 1 M sulfuric acid, 0.03% Brij-35) in equal proportions. The absorbance for each well was measured at 515 nm and the enzyme inhibition was calculated. The urea production in the absence of any tested compound was considered as maximal enzyme activity. The absorbance at the absence of arginase (background) was subtracted from all the values. The normalized values were analyzed using GraphPad Prism 7.0 software by plotting inhibition curves and determining the IC50 values.
# (§3) The inhibitory activity classes of the hydrochloride salts of the exemplary compounds according to the invention are presented in Table 1
# [2] = target: T2, recombinant human arginase 2 (hARG2) (Homo sapiens, UniProt P78540); assay: Human arginase inhibition assay (colorimetric urea detection), arginase 2; assay type: biochemical; conditions: IC50 class; hydrochloride salts; 1 h at 37° C., pH 7.4, 20 mM L-arginine, 200 μM MnCl2; read-out: Activity Class (ARG II)
# T2 construct: made in house; host or cells: E. coli
# T2 sequence (P78540 23-354): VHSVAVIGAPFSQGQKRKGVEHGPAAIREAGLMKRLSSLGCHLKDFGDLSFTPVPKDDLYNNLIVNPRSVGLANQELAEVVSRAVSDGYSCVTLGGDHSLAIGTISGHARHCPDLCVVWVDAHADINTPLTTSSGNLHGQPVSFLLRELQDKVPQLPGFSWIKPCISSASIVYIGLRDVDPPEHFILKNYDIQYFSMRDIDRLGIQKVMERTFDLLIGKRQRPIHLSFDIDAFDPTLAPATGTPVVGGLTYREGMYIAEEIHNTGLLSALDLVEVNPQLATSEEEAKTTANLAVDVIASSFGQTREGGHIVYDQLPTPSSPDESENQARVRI
# Method: as §1, §2, §3
Structure (SMILES),IC50 [1],IC50 [2]
"C[C@@H](O)[C@H](N)C(=O)NC[C@@H]1CC[C@@H](CCB(O)O)C[C@]1(N)C(=O)O [Example 19, (1R,2S,5R)-1-Amino-2-(((2S,3R)-2-amino-3-hydroxybutanamido)methyl)-5-(2-boronoethyl)cyclohexane-1-carboxylic acid dihydrochloride]",100 to 199 nM,> 300 nM
"CC(C)[C@@H](N)C(=O)NC[C@@H]1CC[C@@H](CCB(O)O)C[C@]1(N)C(=O)O [Example 23, (1R,2S,5R)-1-Amino-2-(((R)-2-amino-3-methylbutanamido)methyl)-5-(2-boronoethyl)cyclohexane-1-carboxylic acid dihydrochloride]",1 to 99 nM,> 300 nM
"CCN[C@]1(C(=O)O)C[C@H](CCB(O)O)CC[C@H]1CNC(=O)[C@H](C)N [Example 35, (1R,2S,5R)-2-(((S)-2-Aminopropanamido)methyl)-5-(2-boronoethyl)-1-(ethylamino)cyclohexane-1-carboxylic acid dihydrochloride]",> 300 nM,> 300 nM
"N[C@@H](Cc1ccc(O)cc1)C(=O)NC[C@@H]1CC[C@@H](CCB(O)O)C[C@]1(N)C(=O)O [Example 14, (1R,2S,5R)-1-Amino-2-(((S)-2-amino-3-(4-hydroxyphenyl)propanamido)methyl)-5-(2-boronoethyl)cyclohexane-1-carboxylic acid dihydrochloride]",200 to 299 nM,> 300 nM
"CC(C)[C@H](N)C(=O)NC[C@@H]1CC[C@@H](CCB2OC(=O)CC(CC(=O)O)(C(=O)O)O2)C[C@]1(N)C(=O)O (stereo partly drawn) [Example 33, 2-(2-((1R,3R,4S)-3-Amino-4-(((S)-2-amino-3-methylbutanamido)methyl)-3-carboxycyclohexyl)ethyl)-4-(carboxymethyl)-6-oxo-1,3,2-dioxaborinane-4-carboxylic acid dihydrochloride]",100 to 199 nM,> 300 nM
"C[C@H](N)C(=O)N(C)C[C@@H]1CC[C@@H](CCB(O)O)C[C@]1(N)C(=O)O [Example 24, (1R,2S,5R)-1-Amino-2-(((S)-2-amino-N-methylpropanamido)methyl)-5-(2-boronoethyl)cyclohexane-1-carboxylic acid dihydrochloride]",100 to 199 nM,> 300 nM
"CNCC(=O)NC[C@@H]1CC[C@@H](CCB(O)O)C[C@]1(N)C(=O)O [Example 31, (1R,2S,5R)-1-Amino-5-(2-boronoethyl)-2-((2-(methylamino)acetamido)methyl)cyclohexane-1-carboxylic acid dihydrochloride]",100 to 199 nM,> 300 nM
"Cn1cc(C[C@@H](N)C(=O)NC[C@@H]2CC[C@@H](CCB(O)O)C[C@]2(N)C(=O)O)c2ccccc21 [Example 26, (1R,2S,5R)-1-Amino-2-(((R)-2-amino-3-(1-methyl-1H-indol-3-yl)propanamido)methyl)-5-(2-boronoethyl)cyclohexane-1-carboxylic acid dihydrochloride]",100 to 199 nM,> 300 nM
"C[C@@H](N)C(=O)NC[C@@H]1CC[C@@H](CCB(O)O)C[C@]1(N)C(=O)O [Example 22, (1R,2S,5R)-1-Amino-2-(((R)-2-aminopropanamido)methyl)-5-(2-boronoethyl)cyclohexane-1-carboxylic acid dihydrochloride]",1 to 99 nM,> 300 nM
"N[C@@H](CO)C(=O)NC[C@@H]1CC[C@@H](CCB(O)O)C[C@]1(N)C(=O)O [Example 7, (1R,2S,5R)-1-Amino-2-(((S)-2-amino-3-hydroxypropanamido)methyl)-5-(2-boronoethyl)cyclohexane-1-carboxylic acid dihydrochloride]",100 to 199 nM,> 300 nM
"CC(C)[C@H](N)C(=O)N(C)C[C@@H]1CC[C@@H](CCB(O)O)C[C@]1(N)C(=O)O [Example 25, (1R,2S,5R)-1-Amino-2-(((S)-2-amino-N,3-dimethylbutanamido)methyl)-5-(2-boronoethyl)cyclohexane-1-carboxylic acid dihydrochloride]",1 to 99 nM,> 300 nM
"N[C@@H](Cc1c[nH]c2ccccc12)C(=O)NC[C@@H]1CC[C@@H](CCB(O)O)C[C@]1(N)C(=O)O [Example 18, (1R,2S,5R)-1-Amino-2-(((S)-2-amino-3-(1H-indol-3-yl)propanamido)methyl)-5-(2-boronoethyl)cyclohexane-1-carboxylic acid dihydrochloride]",100 to 199 nM,> 300 nM

# Next, values leading:
IC50 [1],IC50 [2],Structure (SMILES)
100 to 199 nM,> 300 nM,"N[C@@H](Cc1c[nH]cn1)C(=O)NC[C@@H]1CC[C@@H](CCB(O)O)C[C@]1(N)C(=O)O [Example 8, (1R,2S,5R)-1-Amino-2-(((S)-2-amino-3-(1H-imidazol-4-yl)propanamido)methyl)-5-(2-boronoethyl)cyclohexane-1-carboxylic acid trihydrochloride]"
200 to 299 nM,> 300 nM,"CC(C)[C@@](C)(N)C(=O)NC[C@@H]1CC[C@@H](CCB(O)O)C[C@]1(N)C(=O)O [Example 21, (1R,2S,5R)-1-Amino-2-((2-amino-2,3-dimethylbutanamido)methyl)-5-(2-boronoethyl)cyclohexane-1-carboxylic acid dihydrochloride]"
1 to 99 nM,100 to 199 nM,"N[C@H](C(=O)NC[C@@H]1CC[C@@H](CCB(O)O)C[C@]1(N)C(=O)O)C1CCCC1 [Example 11, (1R,2S,5R)-1-Amino-2-(((S)-2-amino-2-cyclopentylacetamido)methyl)-5-(2-boronoethyl)cyclohexane-1-carboxylic acid dihydrochloride]"
> 300 nM,> 300 nM,"CN[C@]1(C(=O)O)C[C@H](CCB(O)O)CC[C@H]1CNC(=O)[C@H](C)N [Example 36, (1R,2S,5R)-2-(((S)-2-Aminopropanamido)methyl)-5-(2-boronoethyl)-1-(methylamino)cyclohexane-1-carboxylic acid dihydrochloride]"
1 to 99 nM,> 300 nM,"CCC[C@H](N)C(=O)NC[C@@H]1CC[C@@H](CCB(O)O)C[C@]1(N)C(=O)O [Example 20, (1R,2S,5R)-1-Amino-2-(((S)-2-aminopentanamido)methyl)-5-(2-boronoethyl)cyclohexane-1-carboxylic acid dihydrochloride]"
200 to 299 nM,> 300 nM,"NC(=O)C[C@H](N)C(=O)NC[C@@H]1CC[C@@H](CCB(O)O)C[C@]1(N)C(=O)O [Example 15, (1R,2S,5R)-1-Amino-5-(2-boronoethyl)-2-(((S)-2,4-diamino-4-oxobutanamido)methyl)cyclohexane-1-carboxylic acid dihydrochloride]"
100 to 199 nM,> 300 nM,"NC(=O)CC[C@H](N)C(=O)NC[C@@H]1CC[C@@H](CCB(O)O)C[C@]1(N)C(=O)O [Example 28, (1R,2S,5R)-1-Amino-5-(2-boronoethyl)-2-(((S)-2,5-diamino-5-oxopentanamido)methyl)cyclohexane-1-carboxylic acid dihydrochloride]"
> 300 nM,> 300 nM,"N[C@@H](CCC(=O)O)C(=O)NC[C@@H]1CC[C@@H](CCB(O)O)C[C@]1(N)C(=O)O [Example 30, (1R,2S,5R)-1-Amino-2-(((S)-2-amino-4-carboxybutanamido)methyl)-5-(2-boronoethyl)cyclohexane-1-carboxylic acid dihydrochloride]"
100 to 199 nM,> 300 nM,"CC(C)(O)[C@H](N)C(=O)NC[C@@H]1CC[C@@H](CCB(O)O)C[C@]1(N)C(=O)O [Example 16, (1R,2S,5R)-1-Amino-2-(((S)-2-amino-3-hydroxy-3-methylbutanamido)methyl)-5-(2-boronoethyl)cyclohexane-1-carboxylic acid dihydrochloride]"
